The text below walks through data of patent USRE50528E1, “Compounds and compositions for modulating EGFR mutant kinase activities” (Yuhan Corporation, priority 2014, dated 2025).

A value given as a limit tells only on which side of the number the result lay.

One assay concerns the target T1, EGFR mutant L858R/T790M (Homo sapiens, UniProt P00533, L858R/T790M).
T1 construct: truncated human JAK3, EGFR mutants such as del E746-A750; purchased Carna Biosciences
The assay is described as follows: Kinase inhibition assay, EGFR L858R/T790M.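 Note: truncated human enzyme preincubated two hours with compound, then one hour with one millimolar ATP and ULight-PolyGT peptide, Europium-labeled antibody detection, IC50.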 It counts as biochemical. The conditions noted are these: read-out: EGFR mutants L858R/T790M.

Another assay concerns the target T2, SYK (Homo sapiens, UniProt P43405).
T2 construct: Purified human, full-length SYK, KDR; purchased Carna Biosciences
The experiment in a line: Kinase inhibition assay, SYK.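 Note: purified full-length human SYK pre-incubated 30 min with compound, then ULight-TK peptide phosphorylation for 1 h, detected with Europium-labeled antibody in Lance buffer.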 Format: biochemical. Conditions: biochemical potency.

The target in a further assay is T3, EGFR mutant Del19/T790M (Homo sapiens, UniProt P00533, DEL746-750/T790M).
T3 construct: truncated human JAK3, EGFR mutants such as del E746-A750; purchased Carna Biosciences
The assay is described as follows: Kinase inhibition assay, EGFR del E746-A750/T790M. It counts as biochemical. Conditions: read-out: EGFR mutants Del19/T790M.

In assay [1] the target is T4, EGFR mutant Del19 (E746-A750) (Homo sapiens, UniProt P00533, DEL746-750).
T4 construct: truncated human JAK3, EGFR mutants such as del E746-A750; purchased Carna Biosciences
The assay is described as follows: Kinase inhibition assay, EGFR del E746-A750.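 Note: truncated human EGFR mutant kinase, two-hour preincubation with compound, then one-hour reaction with ATP and ULight-PolyGT peptide, LANCE Europium-antibody phosphorylation readout, IC50.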 Format: biochemical. Conditions: read-out: EGFR mutants Del19 (E746-A750).

The target in another assay is T5, EGFR mutant L858R (Homo sapiens, UniProt P00533, L858R).
T5 construct: truncated human JAK3, EGFR mutants such as del E746-A750; purchased Carna Biosciences
The experiment in a line: Kinase inhibition assay, EGFR L858R.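 Note: truncated human EGFR L858R kinase with compound preincubation, ULight-PolyGT peptide phosphorylation read by Europium-antibody Lance detection, IC50.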 Format: biochemical. The conditions noted are these: read-out: EGFR mutants L858R.

Another assay concerns the target T6, EGFR mutant T790M (Homo sapiens, UniProt P00533, T790M).
T6 construct: truncated human JAK3, EGFR mutants such as del E746-A750; purchased Carna Biosciences
The assay is described as follows: Kinase inhibition assay, EGFR mutant T790M.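 Note: truncated human EGFR mutant enzyme preincubated two hours with compound, then ATP plus ULight-PolyGT peptide for one hour, Europium-labeled antibody LANCE detection, IC50.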 The conditions noted are these: biochemical potency.

T5 sequence (P00533 669-1210 L858R limits assumed): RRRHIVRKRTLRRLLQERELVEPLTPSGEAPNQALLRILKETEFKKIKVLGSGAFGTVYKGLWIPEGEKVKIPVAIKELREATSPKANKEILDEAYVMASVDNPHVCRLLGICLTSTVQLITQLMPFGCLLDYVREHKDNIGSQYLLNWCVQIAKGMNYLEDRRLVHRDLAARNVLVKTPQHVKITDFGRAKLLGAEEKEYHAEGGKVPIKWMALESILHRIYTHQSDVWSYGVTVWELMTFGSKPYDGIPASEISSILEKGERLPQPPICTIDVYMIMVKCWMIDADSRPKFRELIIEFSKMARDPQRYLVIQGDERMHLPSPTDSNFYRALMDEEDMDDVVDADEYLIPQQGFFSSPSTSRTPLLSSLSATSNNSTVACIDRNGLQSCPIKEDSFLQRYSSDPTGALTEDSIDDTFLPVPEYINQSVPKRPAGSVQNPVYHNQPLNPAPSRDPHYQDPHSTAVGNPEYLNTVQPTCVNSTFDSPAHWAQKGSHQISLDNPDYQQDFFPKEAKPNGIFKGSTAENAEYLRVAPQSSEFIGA
T3 sequence (P00533 with tags, fused parts or gaps DEL746-750/T790M limits assumed): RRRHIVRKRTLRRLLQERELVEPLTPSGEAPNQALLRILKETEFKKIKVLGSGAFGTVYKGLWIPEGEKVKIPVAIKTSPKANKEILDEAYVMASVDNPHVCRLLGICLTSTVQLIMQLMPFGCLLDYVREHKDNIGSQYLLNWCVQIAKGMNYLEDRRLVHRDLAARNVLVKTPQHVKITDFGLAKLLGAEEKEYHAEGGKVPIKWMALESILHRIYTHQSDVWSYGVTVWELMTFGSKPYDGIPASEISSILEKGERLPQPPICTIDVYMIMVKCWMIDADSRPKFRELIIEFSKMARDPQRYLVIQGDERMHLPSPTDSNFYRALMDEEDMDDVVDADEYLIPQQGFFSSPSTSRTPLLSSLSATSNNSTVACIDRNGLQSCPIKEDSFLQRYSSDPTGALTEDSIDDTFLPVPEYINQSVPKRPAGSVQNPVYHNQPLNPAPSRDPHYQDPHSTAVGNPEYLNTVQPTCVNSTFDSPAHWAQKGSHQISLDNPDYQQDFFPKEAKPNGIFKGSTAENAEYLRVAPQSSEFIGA
T4 sequence (P00533 with tags, fused parts or gaps DEL746-750 limits assumed): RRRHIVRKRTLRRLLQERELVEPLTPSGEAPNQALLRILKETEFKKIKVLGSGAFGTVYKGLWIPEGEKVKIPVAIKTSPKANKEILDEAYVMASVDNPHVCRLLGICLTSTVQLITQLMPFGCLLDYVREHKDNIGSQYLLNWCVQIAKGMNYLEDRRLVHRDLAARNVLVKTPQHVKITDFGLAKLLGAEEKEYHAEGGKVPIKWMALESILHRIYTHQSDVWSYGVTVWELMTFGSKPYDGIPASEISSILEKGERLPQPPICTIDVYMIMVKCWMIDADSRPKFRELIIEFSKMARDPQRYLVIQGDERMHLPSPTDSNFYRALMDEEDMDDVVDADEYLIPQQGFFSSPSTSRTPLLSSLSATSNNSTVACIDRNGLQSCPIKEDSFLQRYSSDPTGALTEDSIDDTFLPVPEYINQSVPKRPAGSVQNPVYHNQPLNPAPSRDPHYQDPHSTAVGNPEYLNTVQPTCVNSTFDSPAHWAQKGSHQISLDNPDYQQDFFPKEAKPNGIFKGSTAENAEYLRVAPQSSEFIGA
T1 sequence (P00533 669-1210 T790M/L858R limits assumed): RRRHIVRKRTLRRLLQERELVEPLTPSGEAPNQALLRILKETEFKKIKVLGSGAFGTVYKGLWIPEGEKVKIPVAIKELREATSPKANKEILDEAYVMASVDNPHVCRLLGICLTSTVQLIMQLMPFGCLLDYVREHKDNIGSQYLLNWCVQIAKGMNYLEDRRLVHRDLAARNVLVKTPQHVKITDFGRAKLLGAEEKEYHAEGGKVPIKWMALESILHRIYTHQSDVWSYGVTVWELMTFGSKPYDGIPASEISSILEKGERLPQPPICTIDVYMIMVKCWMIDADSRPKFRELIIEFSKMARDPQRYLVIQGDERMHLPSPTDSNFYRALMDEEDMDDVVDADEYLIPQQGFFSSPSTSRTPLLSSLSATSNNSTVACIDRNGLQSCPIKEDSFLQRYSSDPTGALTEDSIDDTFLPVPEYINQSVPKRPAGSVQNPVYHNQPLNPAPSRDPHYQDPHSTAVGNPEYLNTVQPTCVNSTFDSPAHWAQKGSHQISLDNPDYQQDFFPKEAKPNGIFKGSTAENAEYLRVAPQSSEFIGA
T6 sequence (P00533 669-1210 T790M limits assumed): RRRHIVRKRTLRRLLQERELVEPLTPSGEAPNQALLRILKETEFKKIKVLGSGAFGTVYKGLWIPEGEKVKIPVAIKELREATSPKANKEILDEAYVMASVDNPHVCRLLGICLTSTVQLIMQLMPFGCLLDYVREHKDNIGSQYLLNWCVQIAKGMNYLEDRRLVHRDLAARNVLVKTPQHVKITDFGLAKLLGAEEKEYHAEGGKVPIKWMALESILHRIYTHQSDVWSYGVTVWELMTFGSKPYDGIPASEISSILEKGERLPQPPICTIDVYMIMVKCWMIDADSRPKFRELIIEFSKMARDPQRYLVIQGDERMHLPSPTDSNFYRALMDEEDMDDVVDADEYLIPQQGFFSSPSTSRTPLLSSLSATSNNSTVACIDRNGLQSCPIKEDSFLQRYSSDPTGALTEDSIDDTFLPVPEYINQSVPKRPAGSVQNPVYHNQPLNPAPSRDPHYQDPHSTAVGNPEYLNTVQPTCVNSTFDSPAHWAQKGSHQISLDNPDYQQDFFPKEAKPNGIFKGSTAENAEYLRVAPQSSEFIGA

As for `C=CC(=O)Nc1cc(Nc2ncc(Cl)c(-n3cc(CN4C[C@H](O)[C@H](OC)C4)c(C)n3)n2)c(OC)cc1N1CCOCC1` [Compound 51, N-(5-(5-chloro-4-(4-(((3S,4R)-3-hydroxy-4-methoxypyrrolidin-1-yl)methyl)-3-methyl-1H-pyrazol-1-yl)pyrimidin-2-ylamino)-4-methoxy-2-morpholinophenyl)acrylamide], the IC50 on EGFR mutant L858R/T790M was less than 20 nM; on SYK, greater than 1000 nM; at EGFR mutant Del19/T790M, less than 20 nM; in assay [1], 20 to 200 nM; on EGFR mutant L858R, 20 to 200 nM; against EGFR mutant T790M, less than 20 nM.
`C=CC(=O)Nc1cc(Nc2ncc(C)c(-n3cc(CN4CCC4)c(C(C)(C)C)n3)n2)c(OC)cc1N1CCOCC1` [Compound 67, N-(5-(4-(4-(azetidin-1-ylmethyl)-3-tert-butyl-1H-pyrazol-1-yl)-5-methylpyrimidin-2-ylamino)-4-methoxy-2-morpholinophenyl)acrylamide]: the IC50 was less than 20 nM on EGFR mutant L858R/T790M; greater than 1000 nM on SYK; less than 20 nM on EGFR mutant Del19/T790M; less than 20 nM in assay [1]; less than 20 nM at EGFR mutant L858R; 20 to 200 nM against EGFR mutant T790M.
Consider `C=CC(=O)Nc1cc(Nc2nccc(-n3cc(CN4CCC4)c(-c4ccccc4)n3)n2)c(OC)cc1N(C)C1COC1` [Compound 97, N-(5-(4-(4-(azetidin-1-ylmethyl)-3-phenyl-1H-pyrazol-1-yl)pyrimidin-2-ylamino)-4-methoxy-2-(methyl(oxetan-3-yl)amino)phenyl)acrylamide], for which the IC50 is less than 20 nM at EGFR mutant L858R/T790M; greater than 1000 nM at SYK; less than 20 nM on EGFR mutant Del19/T790M; 20 to 200 nM in assay [1]; less than 20 nM on EGFR mutant L858R; 20 to 200 nM on EGFR mutant T790M.
Take `C=CC(=O)Nc1cc(Nc2nccc(-n3cc(CN(C)C)c(-c4ccc(C)cc4)n3)n2)c(OC)cc1N1CCOCC1` [Compound 80, N-(5-(4-(4-((dimethylamino)methyl)-3-p-tolyl-1H-pyrazol-1-yl)pyrimidin-2-ylamino)-4-methoxy-2-morpholinophenyl)acrylamide]: the IC50 is less than 20 nM at EGFR mutant L858R/T790M; greater than 1000 nM against SYK; less than 20 nM on EGFR mutant Del19/T790M; less than 20 nM in assay [1]; less than 20 nM at EGFR mutant L858R; less than 20 nM against EGFR mutant T790M.
Turning to `C=CC(=O)Nc1cc(Nc2ncc(Cl)c(-n3cc(CN(C)C)c(C)n3)n2)c(OC)cc1N1CCOCC1` [Compound 52, N-(5-(5-chloro-4-(4-((dimethylamino)methyl)-3-methyl-1H-pyrazol-1-yl)pyrimidin-2-ylamino)-4-methoxy-2-morpholinophenyl)acrylamide], the IC50 at EGFR mutant L858R/T790M was less than 20 nM; at SYK, 201 to 1000 nM; at EGFR mutant Del19/T790M it was less than 20 nM; in assay [1] it was less than 20 nM; at EGFR mutant L858R, less than 20 nM; against EGFR mutant T790M it was less than 20 nM.
For `C=CC(=O)Nc1cc(Nc2nccc(-n3cc(CN(C)C)c(-c4cccs4)n3)n2)c(OC)cc1N1CCOCC1` [Compound 88, N-(5-(4-(4-((dimethylamino)methyl)-3-(thiophen-2-yl)-1H-pyrazol-1-yl)pyrimidin-2-ylamino)-4-methoxy-2-morpholinophenyl)acrylamide], the IC50 on EGFR mutant L858R/T790M was less than 20 nM; on SYK, 201 to 1000 nM; at EGFR mutant Del19/T790M, less than 20 nM; in assay [1], less than 20 nM; at EGFR mutant L858R it was less than 20 nM; on EGFR mutant T790M it was less than 20 nM.
Regarding `C=CC(=O)Nc1cc(Nc2ncc(C)c(-n3cc(CN(C)C)c(C(C)(C)C)n3)n2)c(OC)cc1N1CCOCC1` [Compound 7, N-(5-(4-(3-tert-butyl-4-((dimethylamino)methyl)-1H-pyrazol-1-yl)-5-methylpyrimidin-2-ylamino)-4-methoxy-2-morpholinophenyl)acrylamide], the IC50 is less than 20 nM on EGFR mutant L858R/T790M; greater than 1000 nM against SYK; less than 20 nM on EGFR mutant Del19/T790M; less than 20 nM in assay [1]; less than 20 nM at EGFR mutant L858R; less than 20 nM on EGFR mutant T790M.
`C=CC(=O)Nc1cc(Nc2ncc(F)c(-n3cc(C)c(CN4CCC4)c3)n2)c(OC)cc1N1CCOCC1` [Compound 60, N-(5-(4-(3-(azetidin-1-ylmethyl)-4-methyl-1H-pyrrol-1-yl)-5-fluoropyrimidin-2-ylamino)-4-methoxy-2-morpholinophenyl)acrylamide]: the IC50 is less than 20 nM on EGFR mutant L858R/T790M; greater than 1000 nM against SYK; less than 20 nM on EGFR mutant Del19/T790M; less than 20 nM in assay [1]; 20 to 200 nM at EGFR mutant L858R; 20 to 200 nM against EGFR mutant T790M.
`C=CC(=O)Nc1cc(Nc2nccc(-n3cc(CN4CCC4)c(C4CC4)n3)n2)c(OC)cc1N(C)C1COC1` [Compound 109, N-(5-(4-(4-(azetidin-1-ylmethyl)-3-cyclopropyl-1H-pyrazol-1-yl)pyrimidin-2-ylamino)-4-methoxy-2-(methyl(oxetan-3-yl)amino)phenyl)acrylamide]: the IC50 on EGFR mutant L858R/T790M was less than 20 nM; against SYK it was greater than 1000 nM; at EGFR mutant Del19/T790M, less than 20 nM; in assay [1] it was less than 20 nM; at EGFR mutant L858R, less than 20 nM; on EGFR mutant T790M, less than 20 nM.
As for `C=CC(=O)Nc1cc(Nc2nccc(-n3cc(CN(C)C)c(C4CC4)n3)n2)c(OC)cc1N1CCN(C(C)=O)CC1` [Compound 129, N-(2-(4-acetylpiperazin-1-yl)-5-(4-(3-cyclopropyl-4-((dimethylamino)methyl)-1H-pyrazol-1-yl)pyrimidin-2-ylamino)-4-methoxyphenyl)acrylamide], the IC50 on EGFR mutant L858R/T790M was less than 20 nM; against SYK it was 201 to 1000 nM; at EGFR mutant Del19/T790M, less than 20 nM; in assay [1] it was less than 20 nM; at EGFR mutant L858R, less than 20 nM; against EGFR mutant T790M, less than 20 nM.
On to `C=CC(=O)Nc1cc(Nc2ncc(C)c(-n3cc(CN4CCC4)cn3)n2)c(OC)cc1C1=CCN(C)CC1` [Compound 64, N-(5-(4-(4-(azetidin-1-ylmethyl)-1H-pyrazol-1-yl)-5-methylpyrimidin-2-ylamino)-4-methoxy-2-(1-methyl-1,2,3,6-tetrahydropyridin-4-yl)phenyl)acrylamide], for which the IC50 on EGFR mutant L858R/T790M was less than 20 nM; against SYK, greater than 1000 nM; on EGFR mutant Del19/T790M it was less than 20 nM; in assay [1] it was less than 20 nM; at EGFR mutant L858R, 20 to 200 nM; against EGFR mutant T790M, less than 20 nM.
Turning to `C=CC(=O)Nc1cc(Nc2ncc(C)c(-n3cc(CN(C)C)cn3)n2)c(OC)cc1N1CCOCC1` [Compound 22, N-(5-(4-(4-((dimethylamino)methyl)-1H-pyrazol-1-yl)-5-methylpyrimidin-2-ylamino)-4-methoxy-2-morpholinophenyl)acrylamide], the IC50 on EGFR mutant L858R/T790M is less than 20 nM; against SYK, 20 to 200 nM; at EGFR mutant Del19/T790M, less than 20 nM; in assay [1], less than 20 nM; at EGFR mutant L858R, 20 to 200 nM; at EGFR mutant T790M, less than 20 nM.
For the molecule `C=CC(=O)Nc1cc(Nc2nccc(-n3cc(CN(C)C)c(-c4ccccc4)n3)n2)c(OC)cc1N(C)C1COC1` [Compound 96, N-(5-(4-(4-((dimethylamino)methyl)-3-phenyl-1H-pyrazol-1-yl)pyrimidin-2-ylamino)-4-methoxy-2-(methyl(oxetan-3-yl)amino)phenyl)acrylamide], the IC50 is less than 20 nM on EGFR mutant L858R/T790M; greater than 1000 nM against SYK; less than 20 nM at EGFR mutant Del19/T790M; less than 20 nM in assay [1]; less than 20 nM at EGFR mutant L858R; 20 to 200 nM against EGFR mutant T790M.
As to `C=CC(=O)Nc1cc(Nc2ncc(C)c(-n3cc(CN4CCC4)cn3)n2)c(OC)cc1N1CCCN(C)CC1` [Compound 41, N-(5-(4-(4-(azetidin-1-ylmethyl)-1H-pyrazol-1-yl)-5-methylpyrimidin-2-ylamino)-4-methoxy-2-(4-methyl-1,4-diazepan-1-yl)phenyl)acrylamide], the IC50 at EGFR mutant L858R/T790M is less than 20 nM; on SYK it was 201 to 1000 nM; on EGFR mutant Del19/T790M it was less than 20 nM; in assay [1], less than 20 nM; at EGFR mutant L858R it was less than 20 nM; at EGFR mutant T790M, less than 20 nM.
Regarding `C=CC(=O)Nc1cc(Nc2nccc(-n3cc(CN4CCC4)c(-c4ccccc4)n3)n2)c(OC)cc1N1CCC1` [Compound 87, N-(2-(azetidin-1-yl)-5-(4-(4-(azetidin-1-ylmethyl)-3-phenyl-1H-pyrazol-1-yl)pyrimidin-2-ylamino)-4-methoxyphenyl)acrylamide], the IC50 was less than 20 nM on EGFR mutant L858R/T790M; greater than 1000 nM against SYK; less than 20 nM at EGFR mutant Del19/T790M; less than 20 nM in assay [1]; less than 20 nM on EGFR mutant L858R; less than 20 nM at EGFR mutant T790M.
As to `C=CC(=O)Nc1cc(Nc2ncc(C)c(-n3cc(CN4CCC4)cn3)n2)c(OC)cc1N1CCN(C(C)=O)CC1` [Compound 37, N-(2-(4-acetylpiperazin-1-yl)-5-(4-(4-(azetidin-1-ylmethyl)-1H-pyrazol-1-yl)-5-methylpyrimidin-2-ylamino)-4-methoxyphenyl)acrylamide], the IC50 at EGFR mutant L858R/T790M was less than 20 nM; against SYK, 201 to 1000 nM; on EGFR mutant Del19/T790M, less than 20 nM; in assay [1], less than 20 nM; on EGFR mutant L858R it was less than 20 nM; at EGFR mutant T790M, less than 20 nM.
